Patent US20090233937A1 (TAKEDA PHARMACEUTICAL COMPANY LIMITED, priority 2008, published 2009)

molecular target: T1, EGFR kinase (EGFR intracellular domain) (Homo sapiens, UniProt P00533); assay: Determination of EGFR kinase inhibitory activity; format: biochemical; design: concentration or dose not given beside the values; conditions: compound at 1.0 μL (so in the source), [γ-32P]ATP, poly-Glu:Tyr (4:1) substrate
T1 construct: made in house; host or cells: SF-21 insect cells infected with recombinant baculovirus BAC-EGFR
T1 sequence (P00533 669-1210): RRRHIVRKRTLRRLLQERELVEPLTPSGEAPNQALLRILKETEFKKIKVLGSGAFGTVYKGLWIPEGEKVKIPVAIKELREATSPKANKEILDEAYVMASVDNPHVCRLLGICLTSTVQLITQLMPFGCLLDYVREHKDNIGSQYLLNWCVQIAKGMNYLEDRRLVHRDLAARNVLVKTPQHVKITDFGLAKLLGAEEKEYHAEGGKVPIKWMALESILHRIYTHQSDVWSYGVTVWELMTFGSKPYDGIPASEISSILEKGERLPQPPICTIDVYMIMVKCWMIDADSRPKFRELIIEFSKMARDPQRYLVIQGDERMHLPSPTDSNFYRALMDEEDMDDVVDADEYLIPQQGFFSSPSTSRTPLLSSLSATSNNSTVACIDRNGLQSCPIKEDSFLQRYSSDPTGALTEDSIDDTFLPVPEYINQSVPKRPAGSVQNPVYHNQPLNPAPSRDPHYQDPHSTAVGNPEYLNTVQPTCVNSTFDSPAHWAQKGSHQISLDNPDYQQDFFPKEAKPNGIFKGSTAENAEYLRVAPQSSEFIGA
Description: Human EGFR gene was cloned by RT-PCR using total RNA prepared from A431 cells as a template. The primer used for RT-PCR was prepared in consideration of the information of nucleotide sequence (Genbank Accession No. X00588) of EGFR gene by adding a nucleotide sequence encoding DYKDDDD peptide and a restriction enzyme recognition sequence to a nucleotide sequence (corresponding to 2191-3819 of Genbank Accession No. X00588 as a base, 669-1210 amino acids of Genbank Accession No. NP_005219 as a protein) encoding the EGFR intracellular domain region such that the protein contains an N-terminal DYKDDDD peptide tag. The primer nucleotide sequence is shown below.
(§1) SF-21 cells were sown at 1×10^6 cells/mL in Sf-900II SFM medium (1 L, Invitrogen) containing 10% fetal bovine serum (trace), 50 mg/L gentamicin (Invitrogen) and 0.1% Pluronic F-68 (Invitrogen), and shaking culture was performed using a 2 L volume Erlenmeyer flask at 27° C., 100 rpm. After culturing for 24 hrs, recombinant baculovirus BAC-EGFR (13.4 mL) was added, and the mixture was further cultured for 3 days. The culture medium was centrifuged at 2,000 rpm for 5 min to give virus-infected cells. The infected cells were washed with a phosphate buffered saline (Invitrogen), centrifuged under the same conditions, and the cells were preserved at −80° C. The cryopreserved cells were thawed in ice, suspended in buffer A (50 mM Tris buffer (30 mL, pH 7.4) containing 20% glycerol, 0.15 M NaCl) supplemented with Complete Protease Inhibitor (Boehringer), and ruptured 3 times with a Polytron homogenizer (Kinematica) at 20,000 rpm for 30 sec. The ruptured solution was clarified by centrifugation at 40,000 rpm for 30 min, and filtered with a 0.45 μm filter. The filtrate was passed through a column packed with Anti-FLAG M2 Affinity Gel (4 mL, Sigma-Aldrich) at a flow rate of about 0.5 mL/min. The column was washed with buffer A, and eluted with buffer A containing 100 μg/mL of FLAG peptide. The eluent was concentrated with Vivaspin 20 (Vivascience) having a molecular weight cut off of 30K. The concentrate was purified by gel filtration using Hi Load 16/60 Superdex 200 pg (GE Healthcare Bioscience) equilibrated with buffer A. The fractions containing EGFR intracellular domain were collected and cryopreserved at −80° C.
EGFR kinase reaction was performed using a 96 well plate. As a buffer for kinase reaction, a buffer having a composition of 50 mM Tris-HCl (pH 7.5), 5 mM MnCl2, 2 mM dithiothreitol, 0.01% Tween-20 was used. The compound of the present invention was dissolved in dimethyl sulfoxide (DMSO), and diluted with the kinase reaction buffer so that DMSO concentration would be 0.1% during kinase reaction. This compound solution (10 μL) was mixed with a kinase reaction buffer (20 μL) containing EGFR intracellular domain (0.625 μg/mL) obtained in Experimental Example 2B and polypeptide substrate poly-Glu:Tyr (4:1) (Sigma Ltd., 12.5 μg/mL), and the mixture was stood at room temperature for 5 min. […] A kinase reaction was performed at room temperature for 10 min, and the kinase reaction was quenched by addition of 20% TCA solution (50 μL). The mixture after completion of the reaction was stood at room temperature for 30 min, and acid insoluble fractions in the mixture after completion of the reaction were collected in a 96 well GF/C filter plate (PerkinElmer) using a cell harvester (PerkinElmer). Thereafter, the filter containing the acid insoluble fractions was washed with 3% phosphoric acid solution. After washing, the filter plate was dried at 45° C. for 60 min, and 25 μL of MicroScinti 0 (PerkinElmer) was added. The radioactivity was measured using TopCount (PerkinElmer). EGFR kinase inhibitory rate (%) of the test compound was calculated by the following formula:
Inhibitory rate (%)=(1−(count of test compound−blank)÷(control−blank))×100

Row | SMILES | inhibitory rate (%) at 1.0 μL [%]
1 | OCCn1ccc2ncnc(Nc3ccc(Oc4cccc5sncc45)c(Br)c3)c21 [Example 45] | 99
2 | CS(=O)(=O)CC(=O)NCCn1ccc2ncnc(Nc3ccc(Oc4cccc5sncc45)c(Cl)c3)c21.CS(=O)(=O)O [Example 24, N-[2-(4-{[4-(1,2-benzoisothiazol-4-yloxy)-3-chlorophenyl]amino}-5H-pyrrolo[3,2-d]pyrimidin-5-yl)ethyl]-2-(methylsulfonyl)acetamide methanesulfonate] | 100
3 | CC(=O)NCCn1ccc2ncnc(Nc3ccc(Oc4cccc5nscc45)c(Cl)c3)c21 [Example 12, N-[2-(4-{[4-(2,1-benzoisothiazol-4-yloxy)-3-chlorophenyl]amino}-5H-pyrrolo[3,2-d]pyrimidin-5-yl)ethyl]acetamide] | 95
4 | CC(C)(N)CC(=O)NCCn1ccc2ncnc(Nc3ccc(Oc4cccc5sncc45)c(Cl)c3)c21 [Example 62, 3-amino-N-[2-(4-{[4-(1,2-benzoisothiazol-4-yloxy)-3-chlorophenyl]amino}-5H-pyrrolo[3,2-d]pyrimidin-5-yl)ethyl]-3-methylbutanamide] | 99
5 | Cn1ccc2ncnc(Nc3ccc(Oc4cccc5sncc45)c(Cl)c3)c21 [Example 1, N-[4-(1,2-benzoisothiazol-4-yloxy)-3-chlorophenyl]-5-methyl-5H-pyrrolo[3,2-d]pyrimidin-4-amine] | 99
6 | CC(C)(CO)C(=O)NCCn1ccc2ncnc(Nc3ccc(Oc4cccc5sncc45)c(Cl)c3)c21 [Example 10, N-[2-(4-{[4-(1,2-benzoisothiazol-4-yloxy)-3-chlorophenyl]amino}-5H-pyrrolo[3,2-d]pyrimidin-5-yl)ethyl]-3-hydroxy-2,2-dimethylpropanamide] | 98

molecular target: T2, HER2 kinase (HER2 intracellular domain) (Homo sapiens, UniProt P04626); assay: Determination of HER2 kinase inhibitory activity; format: biochemical; design: concentration or dose not given beside the values; conditions: compound at 1.0 μL (so in the source), [γ-32P]ATP, poly-Glu:Tyr (4:1) substrate
T2 construct: made in house; host or cells: SF-21 insect cells infected with recombinant baculovirus BAC-HER2
T2 sequence (P04626 676-1255): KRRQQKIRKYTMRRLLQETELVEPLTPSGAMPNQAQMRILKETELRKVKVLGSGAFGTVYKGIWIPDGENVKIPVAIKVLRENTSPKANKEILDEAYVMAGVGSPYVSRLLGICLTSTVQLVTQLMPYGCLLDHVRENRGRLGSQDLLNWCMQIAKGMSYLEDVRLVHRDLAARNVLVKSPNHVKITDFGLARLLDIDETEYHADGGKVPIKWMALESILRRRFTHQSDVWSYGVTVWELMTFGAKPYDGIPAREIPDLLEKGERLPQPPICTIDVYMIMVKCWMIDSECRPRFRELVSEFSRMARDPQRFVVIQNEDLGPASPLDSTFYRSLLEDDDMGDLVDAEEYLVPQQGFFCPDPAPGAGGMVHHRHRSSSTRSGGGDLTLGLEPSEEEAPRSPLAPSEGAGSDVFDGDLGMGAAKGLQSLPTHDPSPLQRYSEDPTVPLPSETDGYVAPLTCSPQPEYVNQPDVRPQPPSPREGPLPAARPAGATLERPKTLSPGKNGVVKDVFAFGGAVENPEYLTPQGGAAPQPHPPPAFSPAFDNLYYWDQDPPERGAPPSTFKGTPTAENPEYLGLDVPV
Description: Human HER2 gene was cloned by RT-PCR using total RNA prepared from MCF7 cells as a template. The primer used for RT-PCR was prepared in consideration of the information of nucleotide sequence (Genbank Accession No. M11730) of HER2 gene by adding a nucleotide sequence encoding DYKDDDD peptide and a restriction enzyme recognition sequence to a nucleotide sequence (corresponding to 2176-3918 of Genbank Accession No. M11730 as a base, 676-1255 amino acids of Genbank Accession No. NP_004439 as a protein) encoding the HER2 intracellular domain region such that the protein contains an N-terminal DYKDDDD peptide tag. The primer nucleotide sequence is shown below.
as §1, with “hr,” for “hrs,”, “BAC-HER2” for “BAC-EGFR”, “HER2” for “EGFR”
HER2 kinase reaction was performed using a 96 well plate. As a buffer for kinase reaction, a buffer having a composition of 50 mM Tris-HCl (pH 7.5), 5 mM MnCl2, 2 mM dithiothreitol, 0.01% Tween-20 was used. The compound of the present invention was dissolved in dimethyl sulfoxide (DMSO), and diluted with the kinase reaction buffer so that DMSO concentration would be 0.1% during kinase reaction. This compound solution (10 μL) was mixed with a kinase reaction buffer (20 μL) containing HER2 intracellular domain (0.625 μg/mL) obtained in Experimental Example 1B and polypeptide substrate poly-Glu:Tyr (4:1) (Sigma Ltd., 12.5 μg/mL), and the mixture was stood at room temperature for 5 min. Then, a kinase reaction buffer (20 μL) containing 125 μM ATP and 45 μCi/mL [γ-^32P]ATP was added, and the kinase reaction was initiated with 50 μL of the final reaction mixture. A kinase reaction was performed at room temperature for 10 min, and the kinase reaction was quenched by addition of 20% TCA solution (50 μL). The mixture after completion of the reaction was stood at room temperature for 30 min, and acid insoluble fractions in the mixture after completion of the reaction were collected in a 96 well GF/C filter plate (PerkinElmer) using a cell harvester (PerkinElmer). Thereafter, the filter containing the acid insoluble fractions was washed with 3% phosphoric acid solution. After washing, the filter plate was dried at 45° C. for 60 min, and 25 μL of MicroScinti 0 (PerkinElmer) was added. The radioactivity was measured using TopCount (PerkinElmer). HER2 kinase inhibitory rate (%) of the test compound was calculated by the following formula: […]

Row | SMILES | inhibitory rate (%) at 1.0 μL [%]
7 | OCCn1ccc2ncnc(Nc3ccc(Oc4ccc5cnsc5c4)c(Cl)c3)c21 [Example 20, 2-(4-{[4-(1,2-benzoisothiazol-6-yloxy)-3-chlorophenyl]amino}-5H-pyrrolo[3,2-d]pyrimidin-5-yl)ethanol] | 98
8 | CC(C)(CO)C(=O)NCCn1ccc2ncnc(Nc3cc(F)c(Oc4cccc5sncc45)c(Cl)c3)c21 [Example 52, N-[2-(4-{[4-(1,2-benzoisothiazol-4-yloxy)-3-chloro-5-fluorophenyl]amino}-5H-pyrrolo[3,2-d]pyrimidin-5-yl)ethyl]-3-hydroxy-2,2-dimethylpropanamide] | 99
9 | Clc1cc(N2CCn3ccc4ncnc2c43)ccc1Oc1cccc2sncc12 [Example 13, 4-[4-(1,2-benzoisothiazol-4-yloxy)-3-chlorophenyl]-5,6-dihydro-4H-pyrrolo[3,2,1-de]pteridine] | 100
10 | Cc1cc(Nc2ncnc3ccn(CCO)c23)ccc1Oc1cccc2sncc12 [Example 31, 2-(4-{[4-(1,2-benzoisothiazol-4-yloxy)-3-methylphenyl]amino}-5H-pyrrolo[3,2-d]pyrimidin-5-yl)ethanol] | 100
11 | CC(=O)NCCn1ccc2ncnc(Nc3ccc(Oc4cccc5sncc45)c(Cl)c3)c21 [Example 4, N-[2-(4-{[4-(1,2-benzoisothiazol-4-yloxy)-3-chlorophenyl]amino}-5H-pyrrolo[3,2-d]pyrimidin-5-yl)ethyl]acetamide] | 100
12 | CC(C)(N)C(=O)NCCn1ccc2ncnc(Nc3ccc(Oc4cccc5sncc45)c(Cl)c3)c21 [Example 60, N-[2-(4-{[4-(1,2-benzoisothiazol-4-yloxy)-3-chlorophenyl]amino}-5H-pyrrolo[3,2-d]pyrimidin-5-yl)ethyl]-2-methylalaninamide] | 100
13 | COc1cc(Nc2ncnc3ccn(CCO)c23)ccc1Oc1cccc2sncc12 [Example 44, 2-(4-{[4-(1,2-benzoisothiazol-4-yloxy)-3-methoxyphenyl]amino}-5H-pyrrolo[3,2-d]pyrimidin-5-yl)ethanol] | 98
14 | Cl.Cn1c(Cl)cc2ncnc(Nc3ccc(Oc4cccc5sncc45)c(Cl)c3)c21 [Example 2, N-[4-(1,2-benzoisothiazol-4-yloxy)-3-chlorophenyl]-6-chloro-5-methyl-5H-pyrrolo[3,2-d]pyrimidin-4-amine hydrochloride] | 100
